In brackets after ≈: the same amount, converted by molar mass. Where two headings read alike, the source gives them in different places.
How the values were obtained:
[1] = test system: FADU; experiment: Human cancer cell line studies, FADU; assay type: cell-based; conditions: Homo sapiens; Pharynx-sqam FADU; read-out: GI50
Method: (§1) The assay used is described in Monks et al. Briefly, the cell suspensions, diluted according to tho particular cell type and the expected target cell density (5,000-40,000 cells per well based on cell growth characteristics), were added by pipet (100 μl) to 96-well microtiter plates. Inoculates were allowed a preincubation time of 24-28 hours at 37° C. for stabilization. Incubation with the inhibitor compounds lasted for 48 hours in 5% CO2 atmosphere and 100% humidity. Determination of cell growth was done by in situ fixation of cells, followed by staining with a protein-binding dye, sulforhodamine B (SRB), which binds to the basic amino acids of cellular macromolecules. The solubilized stain was measured spectrophotometrically.

[2] = test system: T1, tubulin; experiment: Tubulin polymerization assay; assay type: biochemical, bovine; conditions: for IC50: purified tubulin […], GTP-induced, 350 nm, final steady-state number for compounds other than 1A and 10A, read-out: IC50 for inhibition of tubulin polymerization
T1 construct: Purified tubulin is obtained from bovine brain cells as described in Hamel and Lin
Method: The ability of the various above described compounds to inhibit tubulin polymerization can be determined by in vitro assay. A suitable assay system is that described by Bai et al. A method for purifying tubulin from bovine brain cells is described by Hamel and Lin.
IC50 values for tubulin polymerization were determined according to the procedure described in Bai et al. Purified tubulin is obtained from bovine brain cells as described in Hamel and Lin. Various amounts of inhibitor were preincubated for 15 minutes at 37° C. with purified tubulin. After the incubation period, the reaction was cooled and GTP was added to induce tubulin polymerization. Polymerization was then monitored in a Gilford spectrophotometer at 350 nm. The final reaction mixtures (0.25 ml) contained 1.5 mg/ml tubulin, 0.6 mg/ml microtubule-associated proteins (MAPs), 0.5 mM GTP, 0.5 mM MgCl2, 4% DMSO and 0.1 M 4-morpholineethanesulfonate buffer (MES, pH 6.4). […]

[3] = test system: BXPC-3; experiment: Human cancer cell line studies, BXPC-3; assay type: cell-based; conditions: Homo sapiens; Pancreas adn BXPC-3; read-out: GI50
Method: as §1

[4] = test system: SK-N-SH; experiment: Human cancer cell line studies, SK-N-SH; assay type: cell-based; conditions: Homo sapiens; Neuroblast SK-N-SH; read-out: GI50
Method: as §1

[5] = test system: DU-145; experiment: Human cancer cell line studies, DU-145; assay type: cell-based; conditions: Homo sapiens; Prostate DU-145; read-out: GI50
Method: as §1

[6] = test system: SW1736; experiment: Human cancer cell line studies, SW1736; assay type: cell-based; conditions: Homo sapiens, SW-1736; Thyroid ca SW1736; read-out: GI50
Method: as §1

[7] = test system: NCI-H460; experiment: Growth inhibitory activity, human cancer cell line NCI-H460 (SRB); assay type: cell-based; conditions: Homo sapiens; Lung-NSC NCI-H460; read-out: GI50
Method: as §1

[8] = test system: P388 leukemia cells; experiment: Cytotoxic assay with P388 leukemia cells; assay type: cell-based, mouse
From the text: The tubulin polymerization compounds can also be tested for their ability to inhibit tumor cell growth.

[9] = P388 mouse leukemia, dosage required to inhibit 50% of cell growth
[10] = Mus musculus, P388, read-out: ED50

## COc1ccc(-c2cc3c(OC)ccc(C(=O)c4cc(OC)c(OC)c(OC)c4)c3s2)cc1 [Compound 13A, 7-(3′,4′,5′-trimethoxybenzoyl)-2-(4′-methoxyphenyl)-4-methoxybenzo[b]thiophene]
[1]
  GI50: 7.8 µg/mL (≈ 16.8 µM)
[2]
  IC50: > 40 µM
[3]
  GI50: > 10 µg/mL
[4]
  GI50: > 10 µg/mL
[5]
  GI50: > 10 µg/mL
[6]
  GI50: > 10 µg/mL
[7]
  GI50: > 10 µg/mL

## COc1ccc(-c2sc3cc(OC)ccc3c2C(=O)c2ccc(N(C)C)cc2)cc1 [Compound 11A, 3-(4′-N,N-dimethylaminobenzoyl)-2-(4′-methoxyphenyl)-6-methoxybenzo[b]thiophene]
[1]
  GI50: > 10 µg/mL
[2]
  IC50: > 40 µM
[3]
  GI50: > 10 µg/mL
[4]
  GI50: > 10 µg/mL
[5]
  GI50: > 10 µg/mL
[6]
  GI50: > 10 µg/mL
[7]
  GI50: > 10 µg/mL

## COc1cc(/C=C\c2cc(OC)c(OC)c(OC)c2)ccc1N=[N+]=[N-] [Compound 30E, (Z)-1-(4′azido-3′-methoxyphenyl)-2-(3″,4″,5″-trimethoxyphenyl)ethene]
[1]
  GI50: 0.42 µg/mL (≈ 1.23 µM)
[2]
  IC50: 1.5 µM
[3]
  GI50: 0.3 µg/mL (≈ 0.879 µM)
[4]
  GI50: 0.24 µg/mL (≈ 0.703 µM)
[5]
  GI50: 0.7 µg/mL (≈ 2.05 µM)
[6]
  GI50: 0.45 µg/mL (≈ 1.32 µM)
[7]
  GI50: 0.35 µg/mL (≈ 1.03 µM)

## COc1ccc(-c2sc3cc(OC)ccc3c2C(=O)c2c(F)c(F)c(F)c(F)c2F)cc1 [Compound 15A, 3-(2′,3′,4′,5′,6′-pentafluorobenzoyl)-2-(4′-methoxyphenyl)-6-methoxybenzo[b]thiophene]
[1]
  GI50: 1.3 µg/mL (≈ 2.8 µM)
[2]
  IC50: > 40 µM
[3]
  GI50: 5.9 µg/mL (≈ 12.7 µM)
[4]
  GI50: 1.4 µg/mL (≈ 3.01 µM)
[5]
  GI50: 5 µg/mL (≈ 10.8 µM)
[6]
  GI50: 4 µg/mL (≈ 8.61 µM)
[7]
  GI50: 7.9 µg/mL (≈ 17 µM)

## COc1ccc(-c2cc3c(OC)ccc(C(=O)c4cc(F)c(F)c(F)c4)c3s2)cc1 [Compound 12A, 7-(3′,4′,5′-trifluorobenzoyl)-2-(4′-methoxyphenyl)-4-methoxybenzo[b]thiophene]
[1]
  GI50: 6.7 µg/mL (≈ 15.6 µM)
[2]
  IC50: > 40 µM
[3]
  GI50: > 10 µg/mL
[4]
  GI50: > 10 µg/mL
[5]
  GI50: > 10 µg/mL
[6]
  GI50: > 10 µg/mL
[7]
  GI50: > 10 µg/mL

## COc1ccc(-c2sc3cc(OC)ccc3c2C(=O)c2c(OC)cccc2OC)cc1 [Compound 2A, 3-(2′,6′-dimethoxybenzoyl)-2-(4′-methoxyphenyl)-6-methoxybenzo[b]thiophene]
[2]
  tubulin polymerization inhibition: no observable tubulin polymerization inhibition activity
[8]
  activity against P388 leukemia cells: failed to show measurable activity against the leukemia cells
[8]; [9]
  ED50: >100 µg/mL
[8]; P388 mouse leukemia, dosage required to inhibit 50% of cell growth, read-out: ED50 (the source's name)
  IC50: > 100 µg/mL

## COc1ccc2c(c1)CCC=C2c1cc(OC)c(OC)c(OC)c1CO [Compound 25D, 1-(hydroxymethyl-3′,4′,5′-trimethoxyphenyl)-6-methoxy-3,4-dihydronaphthalene]
[1]
  GI50: 0.51 µg/mL (≈ 1.43 µM)
[2]
  IC50: > 40 µM
[3]
  GI50: 0.53 µg/mL (≈ 1.49 µM)
[4]
  GI50: 0.3 µg/mL (≈ 0.842 µM)
[5]
  GI50: 2.6 µg/mL (≈ 7.29 µM)
[6]
  GI50: 2.1 µg/mL (≈ 5.89 µM)
[7]
  GI50: 1.5 µg/mL (≈ 4.21 µM)

## COc1ccc(-c2sc3cc(OC)ccc3c2C(=O)c2cc(OC)c(O)c(OC)c2)cc1 [Compound 19A, 3-(4′-hydroxy-3′,5′-dimethoxybenzoyl)-2-(4′-methoxyphenyl)-6-methoxybenzo[b]thiophene]
[2]
  tubulin polymerization inhibition: no observable tubulin polymerization inhibition activity
[8]
  activity against P388 leukemia cells: failed to show measurable activity against the leukemia cells
[8]; [10]
  IC50: > 100 µg/mL
[8]; [9]
  ED50: >100 µg/mL

## COc1ccc2c(c1)CCC=C2C(=O)c1cc(OC)c(OC)c(OC)c1 [Compound 26D, 1-(3′,4′,5′-trimethoxybenzoyl)-6-methoxy-3,4-dihydronaphthalene]
[1]
  GI50: 0.0013 µg/mL (≈ 0.00367 µM)
[2]; 4 μM
  tubulin polymerization curve at 4 μM: total flat
[2]
  IC50: 1.7 µM
[3]
  GI50: 0.003 µg/mL (≈ 0.00846 µM)
[4]
  GI50: < 0.001 µg/mL
[5]
  GI50: 0.0038 µg/mL (≈ 0.0107 µM)
[6]
  GI50: 0.0048 µg/mL (≈ 0.0135 µM)
[7]
  GI50: 0.0033 µg/mL (≈ 0.00931 µM)

## COc1cc(/C=C\c2cc(OC)c(OC)c(OC)c2)ccc1[N+](=O)[O-] [Compound 27E, (Z)-1-(3′-methoxy-4′-nitrophenyl)-2-(3″,4″,5″-trimethoxyphenyl) ethene]
[1]
  GI50: 1.1 µg/mL (≈ 3.19 µM)
[2]
  IC50: > 40 µM
[3]
  GI50: 1.9 µg/mL (≈ 5.5 µM)
[4]
  GI50: 2.1 µg/mL (≈ 6.08 µM)
[5]
  GI50: 2.6 µg/mL (≈ 7.53 µM)
[6]
  GI50: 3.3 µg/mL (≈ 9.56 µM)
[7]
  GI50: 2.3 µg/mL (≈ 6.66 µM)

## COc1ccc(-c2sc3cc(OC)ccc3c2C(=O)c2cc(OC)cc(OC)c2)cc1 [Compound 3A, 3-(3′,5′-dimethoxybenzoyl)-2-(4′-methoxyphenyl)-6-methoxybenzo[b]thiophene]
[2]
  tubulin polymerization inhibition: no observable tubulin polymerization inhibition activity
[8]
  activity against P388 leukemia cells: failed to show measurable activity against the leukemia cells
[8]; [10]
  IC50: > 100 µg/mL
[8]; [9]
  ED50: >100 µg/mL

## COc1ccc(-c2sc3cc(OC)ccc3c2C(=O)c2cc(F)c(F)c(F)c2)cc1 [Compound 14A, 3-(3′,4′,5′-trifluorobenzoyl)-2-(4′-methoxyphenyl)-6-methoxybenzo[b]thiophene]
[1]
  GI50: 13.6 µg/mL (≈ 31.7 µM)
[2]
  IC50: > 40 µM
[3]
  GI50: > 10 µg/mL
[4]
  GI50: > 10 µg/mL
[5]
  GI50: > 10 µg/mL
[6]
  GI50: > 10 µg/mL
[7]
  GI50: > 10 µg/mL

## COc1ccc(-c2sc3cc(OC)ccc3c2C(=O)/C=C/c2cc(OC)c(OC)c(OC)c2)cc1 [Compound 17A, E-3-[3′-(3′,4′,5′-trimethoxyphenyl)cinnamoyl]-2-(4′-methoxyphenyl)-6-methoxybenzo[b]thiophene]
[1]
  GI50: 1.8 µg/mL (≈ 3.67 µM)
[2]
  IC50: > 40 µM
[3]
  GI50: 2.3 µg/mL (≈ 4.69 µM)
[4]
  GI50: 1.3 µg/mL (≈ 2.65 µM)
[5]
  GI50: 7.5 µg/mL (≈ 15.3 µM)
[6]
  GI50: 5.2 µg/mL (≈ 10.6 µM)
[7]
  GI50: 3.9 µg/mL (≈ 7.95 µM)

## CCOc1c(OC)cc(C(=O)c2c(-c3ccc(OC)cc3)sc3cc(OC)ccc23)cc1OC [Compound 10A, 3-(4′-ethoxy-3′,5′-dimethoxybenzoyl)-2-(4′-methoxyphenyl)-6-methoxybenzo[b]thiophene]
[1]
  GI50: 0.31 µg/mL (≈ 0.648 µM)
[2]
  tubulin polymerization inhibition: clear inhibition of tubulin polymerization of rate, but not of plateau
[2]; 4, 10, and 40 μM
  polymerization curves at several concentrations: nearly identical
[3]
  GI50: 0.22 µg/mL (≈ 0.46 µM)
[4]
  GI50: 0.17 µg/mL (≈ 0.355 µM)
[5]
  GI50: 0.35 µg/mL (≈ 0.731 µM)
[6]
  GI50: 0.31 µg/mL (≈ 0.648 µM)
[7]
  GI50: 0.32 µg/mL (≈ 0.669 µM)

## COc1ccc(/C=C\c2cc(OC)c(OC)c(OC)c2)cc1N(Cc1ccccc1)Cc1ccccc1 [5-[(Z)-2-(3′,4′,5′-trimethoxyphenyl)ethenyl]-2-methoxy-N,N-bis-(phenylmethyl)aniline, reference compound]
[8]; [9]
  ED50: 33.9 µg/mL (≈ 68.4 µM)

## COc1ccc(-c2sc3ccccc3c2C(=O)c2cc(OC)c(OC)c(OC)c2)cc1 [Compound 16A, 3-(3′,4′,5′-trimethoxybenzoyl)-2-(4′-methoxyphenyl)-benzo[b]thiophene]
[1]
  GI50: 0.63 µg/mL (≈ 1.45 µM)
[2]
  IC50: > 40 µM
[3]
  GI50: 1.7 µg/mL (≈ 3.91 µM)
[4]
  GI50: 0.83 µg/mL (≈ 1.91 µM)
[5]
  GI50: 4.8 µg/mL (≈ 11 µM)
[6]
  GI50: 4.6 µg/mL (≈ 10.6 µM)
[7]
  GI50: 2.7 µg/mL (≈ 6.21 µM)

## COc1ccc(/C=C\c2cc(OC)c(OC)c(OC)c2)cc1N [Compound 33E, (Z)-1-(3′-amino-4′-methoxyphenyl)-2-(3″,4″,5″-trimethoxyphenyl)ethene]
[1]
  GI50: < 0.001 µg/mL
[2]
  IC50: […]
[3]
  GI50: 0.0013 µg/mL (≈ 0.00412 µM)
[4]
  GI50: < 0.001 µg/mL
[5]
  GI50: 0.00096 µg/mL (≈ 0.00304 µM)
[6]
  GI50: < 0.001 µg/mL
[7]
  GI50: 0.00068 µg/mL (≈ 0.00216 µM)

## CCOc1ccc(-c2sc3cc(OCC)ccc3c2C(=O)c2cc(OC)c(OC)c(OC)c2)cc1 [Compound 18A, 3-(3′,4′,5′-trimethoxybenzoyl)-2-(4′-ethoxyphenyl)-6-ethoxybenzo[b]thiophene]
[1]
  GI50: 0.6 µg/mL (≈ 1.22 µM)
[2]
  IC50: > 40 µM
[3]
  GI50: 1.6 µg/mL (≈ 3.25 µM)
[4]
  GI50: 0.33 µg/mL (≈ 0.67 µM)
[5]
  GI50: 3.6 µg/mL (≈ 7.31 µM)
[6]
  GI50: 2.3 µg/mL (≈ 4.67 µM)
[7]
  GI50: 1.4 µg/mL (≈ 2.84 µM)
